From patent US20080038321A1, “PROPHYLACTIC/THERAPEUTIC COMPOSITIONS FOR LIVER DISEASES” (Ajinomoto Co., Inc., priority 2004, published 2008)

Assays:
TRB3 [1] = experiment: TRB3 mRNA in Fao cells with L-Asp, L-Ala or both (quantitative PCR); type: cell-based, rat; settings: 3 h, L-Asp 0.05 mM, L-Ala 0.03 mM or both
Experimental: (§1) Whether the suppressive effect of L-Asp on TRB3 expression in rat hepatocyte-derived Fao cells is increased by adding L-Ala as another amino acid was studied. Whether the expression of HNF-4α is increased was also studied. Fao cells were inoculated on a 24-well plate to an amount of 2×10^5 cells/well, and the cells were cultivated in a 10% fetal bovine serum-containing RPMI 1640 medium (supplied from Nacalai Tesque, Inc.; Code No. 30264-85) at 37° C. in an atmosphere of 5% CO2 overnight. On the following day, the medium was replaced with one of a 10% fetal bovine serum-containing RPMI medium from which all amino acids had been removed (minus amino acid medium; Table 1) and media corresponding to the minus amino acid medium, except with L-Asp (concentration: 0.05 mM), L-Ala (concentration: 0.03 mM), or both added, and the cells were further cultivated at 37° C. in 2.5% CO2 atmosphere for three hours. RNAs were extracted from the cultured cells, and the TRB3 mRNA levels and the HNF-4α mRNA levels were determined through quantitative polymerase chain reaction (PCR) (Table 10).

HNF-4α = HNF-4α mRNA in Fao cells with L-Asp, L-Ala or both (quantitative PCR); type: cell-based, rat; settings: 3 h, L-Asp 0.05 mM, L-Ala 0.03 mM or both
Experimental: as §1

TRB3 [2] = experiment: Suppressive effects of amino acids on TRB3 expression in cultured hepatocytes (Fao cells, quantitative PCR); type: cell-based, rat; settings: 3 h, minus amino acid medium plus one L-amino acid 1 mM (or standard medium), mRNA, minus amino acid medium = 1.00, n = 4, mean ± SD
Experimental: Suppressive effects of twenty-two amino acids on TRB3 expression in rat hepatic cancer-derived Fao cells were examined.
The standard medium is a medium corresponding to the minus amino acid medium, except for further containing amino acids listed in Table 2.
RNAs were extracted from the cultured cells, the expression levels of TRB3 gene were determined through quantitative polymerase chain reaction (PCR), and the suppressive effects of amino acids on TRB3 expression were determined and compared with data of TRB3 expression induced upon amino acid starvation. The gene expression was corrected with reference to β-actin expression level. The correction was carried out in the same manner in the after-mentioned genes.
The data were corrected and expressed while taking the average of TRB3 mRNA levels after three-hour cultivation in the minus amino acid medium as 1.00.

[3] = system: GK rats fed with high-fat diets; experiment: GK rats fed with high-fat diets: body weight, fasting glucose, insulin, triglyceride, liver triglyceride; settings: HFD with about 6% L-Asp or 0.01% pioglitazone
TRB3 [4] = experiment: Suppressive effects of amino acids on TRB3 expression in cultured hepatocytes (Fao cells, quantitative PCR); type: cell-based, rat; settings: other experiments; 1 mM
[5] = system: glucose-6-phosphatase (G6Pase); experiment: Effect of L-Asp on G6Pase expression suppressive action of insulin in Fao cells (quantitative PCR); type: cell-based, rat; settings: 6 h, no insulin = 1.00
Experimental: To verify whether an amino acid showing a TRB3 expression suppressive action actually increases the insulin action on hepatocytes, how L-Asp acts on glucose-6-phosphatase (G6Pase) expression suppressive action of insulin in rat hepatic cancer-derived Fao cells was studied.
Fao cells were inoculated on a 24-well plate and cultured overnight. Thereafter, 0, 0.3, and 1.0 mM L-Asp and 0, 10^−10, 10^−8, and 10^−6 M insulin were added respectively to a basal medium corresponding to RPMI 1640 medium containing no glucose but 0.1% BSA, except with L-Asp being removed therefrom, and the cells were further cultivated for six hours. RNAs were extracted from the cultured cells, and the expression levels of G6Pase were determined through quantitative PCR.
The G6Pase expression level in −Asp RPMI medium added with no insulin is defined as 1.00.
The values in the parentheses are values while defining the G6Pase expression levels in −Asp RPMI medium at respective insulin concentrations as 1.00, respectively.

[6] = before administration (baseline)

For `C[C@H](N)C(=O)O` [Ala, L-alanine], the “TRB3 mRNA level” value (TRB3 [1]; minus amino acid medium = 1.00) was 0.43, the “expression level of TRB3 mRNA” value (TRB3 [1]; of minus amino acid medium) was 43% and the “expression level of HNF-4α mRNA” value (HNF-4α) was “not increased”. For the same compound, the “HNF4α mRNA level” value (HNF-4α; minus amino acid medium = 1.00) was 0.80.

With `N[C@@H](CSSC[C@H](N)C(=O)O)C(=O)O` [L-Cyt, cystine] the TRB3 expression level (TRB3 [2]) was 0.487 ± 0.13 and the TRB3 expression level (TRB3 [2]; listed as cystine) was “significantly suppressed TRB3 expression”.

In the case of `NC(=O)CC[C@H](N)C(=O)O` [L-Gln, glutamine], the TRB3 expression level (TRB3 [2]) is reported as 0.750 ± 0.15 and the TRB3 expression level (TRB3 [2]; listed as glutamine) is reported as “significantly suppressed TRB3 expression”.

In the case of `NCC(=O)O` [L-Gly, glycine], the TRB3 expression level (TRB3 [2]) is reported as 0.665 ± 0.12 and the TRB3 expression level (TRB3 [2]; listed as glycine) is reported as “significantly suppressed TRB3 expression”.

In the case of `N[C@@H](Cc1c[nH]cn1)C(=O)O` [L-His, histidine], the TRB3 expression level (TRB3 [2]) is reported as 0.643 ± 0.19 and the TRB3 expression level (TRB3 [2]; listed as histidine) is reported as “significantly suppressed TRB3 expression”.

With `CCc1ccc(CCOc2ccc(CC3SC(=O)NC3=O)cc2)nc1` (stereo not shown) [Pio, pioglitazone, reference compound] the “Fasting blood glucose level” value [3, 6] was 121 ± 37 mg/dL, the Fasting insulin level [3, 6] was 0.4 ± 0.3 ng/mL and the Fasting triglyceride level [3, 6] was 92 ± 19 mg/dL. For the same compound, the Body weight ([3]; before administration (baseline), n = 6) was 222 ± 10 g, the “Fasting blood glucose level” value ([3]; week 3) was 127 ± 5 mg/dL and the Fasting insulin level ([3]; week 3) was 1.9 ± 0.2 ng/mL. The Fasting triglyceride level ([3]; week 3) was 97 ± 16 mg/dL, the “Fasting blood glucose level” value ([3]; week 6) was 109 ± 8 mg/dL and the Fasting insulin level ([3]; week 6) was 1.3 ± 0.5 ng/mL. The Fasting triglyceride level ([3]; week 6) was 75 ± 12 mg/dL and the “Triglyceride content in liver” value ([3]; week 6) was 36 ± 8 mg/g.

`N=C(N)NCCC[C@H](N)C(=O)O` [arginine] was tested, and the TRB3 expression level (TRB3 [2]) was “do not show significantly suppressed TRB3 expression”.

`NC(=O)C[C@H](N)C(=O)O` [asparagine] was tested, and the TRB3 expression level (TRB3 [2]) was “do not show significantly suppressed TRB3 expression”.

For `C[N+](C)(C)CC(=O)O` [betaine, reference compound], the “suppressive effect on TRB3 expression” value (TRB3 [4]) was “does not show a suppressive effect”.

With `N[C@@H](CS)C(=O)O` [cysteine] the TRB3 expression level (TRB3 [2]) was “do not show significantly suppressed TRB3 expression”.

In the case of `N[C@@H](CCC(=O)O)C(=O)O` [glutamic acid], the TRB3 expression level (TRB3 [2]) is reported as “do not show significantly suppressed TRB3 expression”.

`O=C(O)[C@@H]1C[C@@H](O)CN1` [hydroxyproline] was tested, and the TRB3 expression level (TRB3 [2]) was “do not show significantly suppressed TRB3 expression”.

In the case of `CC[C@H](C)[C@H](N)C(=O)O` [isoleucine], the TRB3 expression level (TRB3 [2]) is reported as “do not show significantly suppressed TRB3 expression”.

In the case of `CC(C)C[C@H](N)C(=O)O` [leucine], the TRB3 expression level (TRB3 [2]) is reported as “do not show significantly suppressed TRB3 expression”.

With `NCCCC[C@H](N)C(=O)O` [lysine] the TRB3 expression level (TRB3 [2]) was “do not show significantly suppressed TRB3 expression”.

`CSCC[C@H](N)C(=O)O` [methionine] was tested, and the TRB3 expression level (TRB3 [2]) was “do not show significantly suppressed TRB3 expression”.

`N[C@@H](Cc1ccccc1)C(=O)O` [phenylalanine] was tested, and the TRB3 expression level (TRB3 [2]) was “do not show significantly suppressed TRB3 expression”.

For `O=C(O)[C@@H]1CCCN1` [proline], the TRB3 expression level (TRB3 [2]) was “do not show significantly suppressed TRB3 expression”.

In the case of `N[C@@H](CO)C(=O)O` [serine], the TRB3 expression level (TRB3 [2]) is reported as “do not show significantly suppressed TRB3 expression”.

For `C[C@@H](O)[C@H](N)C(=O)O` [threonine], the TRB3 expression level (TRB3 [2]) was “do not show significantly suppressed TRB3 expression”.

In the case of `N[C@@H](Cc1c[nH]c2ccccc12)C(=O)O` [tryptophan], the TRB3 expression level (TRB3 [2]) is reported as “do not show significantly suppressed TRB3 expression”.

In the case of `N[C@@H](Cc1ccc(O)cc1)C(=O)O` [tyrosine], the TRB3 expression level (TRB3 [2]) is reported as “do not show significantly suppressed TRB3 expression”.

In the case of `CC(C)[C@H](N)C(=O)O` [valine], the TRB3 expression level (TRB3 [2]) is reported as “do not show significantly suppressed TRB3 expression”.

“insulin: insulin added to the Fao cell culture medium at 10^-10 to 10^-6 M [reference compound]” was tested, and the G6Pase expression level ([5]; insulin 10^-6 M alone in -Asp RPMI) was 0.023 (1.00), the G6Pase expression level ([5]; insulin 10^-8 M alone in -Asp RPMI) was 0.032 (1.00) and the G6Pase expression level ([5]; insulin 10^-10 M alone in -Asp RPMI) was 0.148 (1.00).
